Test results: BindingDB's records for doi:10.1021/jm00382a015 (1985)

Target: Adenosylhomocysteinase (Bos taurus)
Test: Binding affinity against S-adenosyl-homocysteine hydrolase

SMILES	Ki [µM]
Nc1ncnc2c1nnn2C1CC(CO)C(O)C1O (configuration not stated) [3-(7-amino-3H-[1,2,3]triazolo[4,5-d]pyrimidin-3-yl)-5-hydroxymethyl-1,2-cyclopentanediol]	22
Nc1nccc2c1ncn2[C@@H]1C[C@H](CO)[C@@H](O)[C@H]1O [3-DEAZAARISTEROMYCIN A]	0.004
